Data published in PMC11945486, “TAS1R2/TAS1R3 Single-Nucleotide Polymorphisms Affect Sweet Taste Receptor Activation by Sweeteners: The SWEET Project” (Nutrients, 2025).

Target: T1, human TAS1R2-R317G (subunit alone) (Homo sapiens, UniProt Q8TE23, R317G)
T1 construct: expressed in transfected cells; host or cells: HEK293T-Gα16gust44
T1 sequence (Q8TE23 20-839 R317G): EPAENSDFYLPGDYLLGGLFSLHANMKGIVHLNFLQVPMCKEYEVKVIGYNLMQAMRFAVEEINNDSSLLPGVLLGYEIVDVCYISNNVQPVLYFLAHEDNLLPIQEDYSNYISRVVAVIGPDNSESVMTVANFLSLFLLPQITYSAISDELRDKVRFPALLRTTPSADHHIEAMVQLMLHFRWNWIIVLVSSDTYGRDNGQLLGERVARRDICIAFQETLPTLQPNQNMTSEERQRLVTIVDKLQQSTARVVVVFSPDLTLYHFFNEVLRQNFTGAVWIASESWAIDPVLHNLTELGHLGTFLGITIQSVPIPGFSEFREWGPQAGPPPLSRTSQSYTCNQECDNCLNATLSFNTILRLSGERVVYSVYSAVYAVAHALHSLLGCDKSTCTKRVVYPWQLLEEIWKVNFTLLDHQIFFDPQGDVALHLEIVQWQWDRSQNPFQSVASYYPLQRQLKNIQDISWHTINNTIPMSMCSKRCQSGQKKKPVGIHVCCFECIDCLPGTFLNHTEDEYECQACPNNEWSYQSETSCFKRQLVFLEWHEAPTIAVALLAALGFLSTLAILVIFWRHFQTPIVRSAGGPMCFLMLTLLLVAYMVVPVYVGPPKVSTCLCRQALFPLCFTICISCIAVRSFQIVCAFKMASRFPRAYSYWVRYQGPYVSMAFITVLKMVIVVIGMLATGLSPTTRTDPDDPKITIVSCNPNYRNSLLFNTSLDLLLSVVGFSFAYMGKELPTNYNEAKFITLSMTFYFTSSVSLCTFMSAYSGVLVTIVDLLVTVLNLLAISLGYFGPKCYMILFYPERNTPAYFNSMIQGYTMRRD
Test: Calcium mobilisation assay, TAS1R2-R317G subunit alone
Type: cell-based
Description: The coding sequences for TAS1R2 and TAS1R3 were commercially synthesised, and the human codon was optimised for expression in human cells. The coding sequences of human TAS1R2 and TAS1R3 were subcloned and inserted into the mammalian expression vectors pcDNA6/myc-HisA and pcDNA4/myc-HisA (Invitrogen; Thermo Fisher Scientific; Illkirch, France) between the EcoRI and NotI restriction sites, generating the plasmids pcDNA6-TAS1R2 and pcDNA4-TAS1R3, respectively. To increase protein expression in mammalian cells, an upstream start codon was used, which was a sequence called MAX, corresponding to the QBI SP163 element also described in pcDNA4-HisMax (Invitrogen; Thermo Fisher Scientific; Illkirch, France). To measure the expression level of the receptor by immunohistochemistry, we used the FLAG sequence ([…]) in the C-terminal position, which encodes the FLAG tag epitope. […]
The HEK293T cells were kindly provided by Jay P. Slack (Givaudan Flavors Corporation; Cincinnati, OH, USA). […] The fluorescence intensity was measured for 90 s (excitation 488 nm, emission 510 nm) in an automated fluorometric FlexStation®3 Multi-Mode microplate reader (Molecular Devices; San Jose, CA, USA). […] The Ca^2+ changes were expressed as fractional changes in fluorescent light intensity: ΔF/F = (F − F0)/F0, where F was the fluorescent light intensity at each point, and F0 was the value of emitted fluorescent light prior to stimulus application. To calculate dose–response relationships, the changes in fluorescence upon stimulus application were averaged, mock-subtracted and baseline-corrected. […] The half-maximal effective concentrations (EC50 values) and maximal signal amplitudes were calculated using SigmaPlot software (version 15.0) (Systat Software; San Jose, CA, USA).
For in vitro calcium mobilisation assay performed on hTAS1R2-SNPs, hTAS1R3-SNPs and mTAS1R3-I60T, 6 to 7 concentrations were tested for each sweet compound, plus buffer alone. All concentration–receptor combinations were measured in duplicate, and each experiment was repeated at least 4 times (8 wells/concentration). […]

SMILES: C=C(C)[C@@H]1CC=C(/C=N/O)CC1 [Perillartine, perillartine]
- EC50: 225 ± 31.9 µM
- R1 = Variant EC50/WT EC50: 2.5
- Max ΔF/F0 (maximal signal amplitude): 0.17 ± 0.01
